Measured values taken from US12673039B2, “Methods of inducing autophagy using coumarin derivatives and related compounds” (Buck Institute for Research on Aging, priority 2019, dated 2026).

System: C. elegans
Assay: C. elegans lifespan assays
Type: in vivo
Excerpt: FIG. 21, panels A-F: AIC106 prevents neuronal loss and proteotoxicity in strains expressing human neurotoxic proteins. Panel A) Dopaminergic neuronal loss in day-5 UA44 worms was quantified by scoring percentage of worms with intact 4-CEP neurons in AIC106 and DMSO-control treatment. [N=3 independent experiments (mean±SD). ***p<0.001, by one-way ANOVA with Tukey's multiple comparisons test]. Motor function in (panel B) day-7 NL5901 and (panel C) day-5 CL2006 worms were quantified by scoring number of thrashes for an individual worm over the period of 30 seconds (dots) in AIC106 and DMSO-control treatment. [N=3 independent experiments (mean±SD). **p<0.01, ***p<0.001 and ****p<0.0001, by one-way ANOVA with Tukey's multiple comparisons test]. Panel D) Motor function in temperature sensitive (enhanced paralysis at 25° C.) CL4176 worms was determined by scoring percent of worms paralyzed in AIC106 and DMSO-control treatment. [N=3 independent experiments (mean±SD). **p<0.01, by one-way ANOVA with Tukey's multiple comparisons test]. Panel E) Lifespan analysis of CL6049 worms exposed to AIC106 and DMSO-control. [N=2 independent experiments, Treatment (median survival in days, P value compared to DMSO-control): DMSO-control (12), AIC106 10 μM (15, p<0.01), 20 μM (15, p<0.0001) and 50 μM (17, p<0.0001). P-value calculated by Logrank test]. Panel F) Effect of AIC106 on polyQ40 aggregation was determined by scoring number of polyQ40-YFP fluorescent puncta in an individual AM141 worm treated with AIC106 and DMSO-control. [N=3 independent experiments (mean±SD). *p<0.05 and ***p<0.001, by one-way ANOVA with Tukey's multiple comparisons test].
FIG. 27, panels A-C: AIC106 induces mitophagy and increases lifespan. Panel A) Relative fold change in mRNA of key mitophagy genes including dct-1, pink-1 and pdr-1 was quantified by qRT-PCR after DMSO-control and AIC106 24 hours treatment in young adult N2 and hlh-30(tm1978) mutants. [N=3 independent experiments (mean±SD). **p<0.01 and ****p<0.0001, by two-way ANOVA with Sidak's multiple comparisons test]. Short exposure (1 week) of AIC106 increased survival of (panel B) wild type N2: DMSO-control (median-12 days), AIC106 50 μM (median-15 days, p<0.0001) and (panel C) mitophagy deficient pdr-1(tm598): mutant DMSO-control (median-15 days), AIC106 50 μM (median −17 days, p<0.001)]. [N=3 independent experiments, P value compared to respective DMSO-control and calculated by Logrank test).
FIG. 28, panels A-B: AIC106 prevents neuronal loss and proteotoxicity in strains expressing human neurotoxic proteins. Panel A) Motor function in day-7 NL5901 were quantified by scoring number of thrashes for an individual worm over the period of 30 seconds (dots) in AIC106 and DMSO-control treatment. [N=3 independent experiments (mean±SD). ***p<0.001 and ****p<0.0001, by one-way ANOVA with Tukey's multiple comparisons test]. Panel B) Lifespan analysis of CL6049 worms exposed to AIC106 and DMSO-control. [N=2 independent experiments, Treatment (median survival in days, P value compared to DMSO-control): DMSO-control RNAi (18), CL6049-AIC106 control RNAi (21, p<0.0001), CL6049-AIC106 hlh-30 RNAi (17, p<0.0001) and 50 μM (17, p<0.0001). P-value calculated by Logrank test].
Lifespan assays for CL6049 and pdr-1(tm598) strains was performed after treating day-1 adult worms with DMSO or AIC106. A synchronized 35-40 young day-1 adult worms were transferred to each 35 mm compound-treated plates supplemented with FuDR containing control DMSO or AIC106 and kept at 20° C. Worms were scored as alive, dead, or lost every alternate day. […] Worms that died from causes other than aging, such as sticking to the plate walls, internal hatching of eggs (bagging), or gonadal extrusion were censored as lost. Worms were transferred to fresh-drugged plates every 3-5 days. All lifespan experiments were performed at 20° C.

O=c1oc2c3c4c(cc2c2c1CCC2)CCCN4CCC3 [C1, 2,3,6,7,10,11-Hexahydro-1H,5H-cyclopenta(3,4)(1)benzopyrano(6,7,8-ij)quinolizin-12(9H)-one]
median survival (CL6049, 50 μM as listed in FIG. 28 panel B legend): 17 days | median survival (CL6049, control RNAi, DMSO-control RNAi 18): 21 days | median survival (CL6049, hlh-30 RNAi): 17 days | median survival (CL6049 worms, 10 μM, DMSO-control 12): 15 days | median survival (CL6049 worms, 20 μM, DMSO-control 12): 15 days | median survival (CL6049 worms, 50 μM, DMSO-control 12): 17 days | human TDP-43 toxicity (survival) (CL6049 worms, dose dependent): protected against human TDP-43 toxicity | lifespan (short treatment (1 week post-development)): significant increase in lifespan of both wild type N2 and pdr-1 mutant
